According to US20240150293A1, “SPIROCYCLOHEXANE DERIVATIVES, PHARMACEUTICAL COMPOSITIONS CONTAINING THEM AND THEIR USES AS ANTI-APOPTOTIC INHIBITORS” (LES LABORATOIRES SERVIER, priority 2021, published 2024):

Target: Mcl-1 protein (UniProtKB Q07820) (Homo sapiens (Human), UniProt Q07820)
Assay: Inhibition of Mcl-1 by the fluorescence polarisation assay (Example A, Method A)
Type: binding
Details: fluorescence polarization assay
Method in brief: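 Protein (5 nM) and fluorescein-tagged peptide tracer (1 nM) incubated with 11-point compound series for 2 h at room temperature in HEPES/NaCl/Tween 20 buffer, pH 7.4, 5% DMSO. Displacement read as decrease in polarisation; IC50 fitted by 4-parameter logistic, converted to Ki (cKi or eKi).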

Sequence of Mcl-1 protein (Q07820 whole entry): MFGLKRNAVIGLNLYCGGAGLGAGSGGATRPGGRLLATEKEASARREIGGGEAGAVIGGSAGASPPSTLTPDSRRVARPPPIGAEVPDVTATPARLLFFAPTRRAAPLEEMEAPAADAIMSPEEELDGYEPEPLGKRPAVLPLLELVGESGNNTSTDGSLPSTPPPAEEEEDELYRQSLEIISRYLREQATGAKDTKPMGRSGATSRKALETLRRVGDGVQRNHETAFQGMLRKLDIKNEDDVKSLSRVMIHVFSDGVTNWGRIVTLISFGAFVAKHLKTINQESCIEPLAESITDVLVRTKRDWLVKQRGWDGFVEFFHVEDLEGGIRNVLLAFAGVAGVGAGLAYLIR

| Ki [µM] | SMILES |
| --- | --- |
| 0.402 | O=C(O)[C@]1(Nc2cccc(Cl)c2)CC[C@@]2(CC1)c1ccccc1CC2c1cccc(OCC2CC2)c1 (single isomer, unassigned) [Example 354, (1r,4r)-4-(3-chloroanilino)-2′-[3-(cyclopropylmethoxy)phenyl]-2′,3′-dihydrospiro[cyclohexane-1,1′-indene]-4-carboxylic acid] |
| 0.0114 | O=C(O)[C@]1(Nc2cccc(Cl)c2)CC[C@@]2(CC1)c1ccccc1CC2CC(COCCN1CCOCC1)COc1ccnc2c1CCC2 (single isomer, unassigned) [Example 495, (1r,4r)-4-(3-chloroanilino)-2′-(2-{[(6,7-dihydro-5H-cyclopenta[b]pyridin-4-yl)oxy]methyl}-3-[2-(morpholin-4-yl)ethoxy]propyl)-2′,3′-dihydrospiro[cyclohexane-1,1′-indene]-4-carboxylic acid] |
| 6.17 | O=C(NCCc1ccccc1)C1Cc2ccccc2[C@]12CC[C@@](Nc1cccc(Cl)c1)(C(=O)O)CC2 (single isomer, unassigned) [Example 406, (1r,4r)-4-(3-chloroanilino)-2′-[(2-phenylethyl)carbamoyl]-2′,3′-dihydrospiro[cyclohexane-1,1′-indene]-4-carboxylic acid] |
| 0.321 | O=C(O)[C@]1(Nc2cccc(Cl)c2)CC[C@@]2(CC1)c1ccccc1CC2CCOCc1ccccc1 (stereo partly drawn) [Example 396, (1r,4r)-2′-[2-(benzyloxy)ethyl]-4-(3-chloroanilino)-2′,3′-dihydrospiro[cyclohexane-1,1′-indene]-4-carboxylic acid] |
| 0.206 | O=C(O)[C@]1(Nc2cccc(Cl)c2)CC[C@@]2(CC1)c1ccccc1CC2CCCOc1cc(F)cc(Cl)c1 (stereo partly drawn) [Example 430, (1r,4r)-4-(3-chloroanilino)-2′-[3-(3-chloro-5-fluorophenoxy)propyl]-2′,3′-dihydrospiro[cyclohexane-1,1′-indene]-4-carboxylic acid] |
| 0.0566 | CC1(C)CCc2ncnc(OCCCC3Cc4ccccc4[C@]34CC[C@@](Nc3cccc(Cl)c3)(C(=O)O)CC4)c21 (stereo partly drawn) [Example 466, (1r,4r)-4-(3-chloroanilino)-2′-{3-[(5,5-dimethyl-6,7-dihydro-5H-cyclopenta[d]pyrimidin-4-yl)oxy]propyl}-2′,3′-dihydrospiro[cyclohexane-1,1′-indene]-4-carboxylic acid] |
| 17.5 | O=C(O)[C@]1(Nc2cccc(Cl)c2)CC[C@]2(CC1)C(C1=CCN(Cc3ccccc3)CC1)=Cc1ccccc12 [Example 360, (1r,4r)-2′-(1-benzyl-1,2,3,6-tetrahydropyridin-4-yl)-4-(3-chloroanilino)spiro[cyclohexane-1,1′-indene]-4-carboxylic acid] |
| 0.0475 | C[C@@H](COc1ccnc(C(F)F)c1)C[C@H]1Cc2ccccc2[C@]12CC[C@@](Nc1cccc(Cl)c1)(C(=O)O)CC2 [Example 581, (1r,2′S,4S)-4-(3-chloroanilino)-2′-[(2R)-3-{[2-(difluoromethyl)pyridin-4-yl]oxy}-2-methylpropyl]-2′,3′-dihydrospiro[cyclohexane-1,1′-indene]-4-carboxylic acid] |
| 77.8 | COCC(F)(F)CC1Cc2ccccc2[C@]12CC[C@@](Nc1cccc(Cl)c1)(C(=O)O)CC2 (stereo partly drawn) [Example 502, (1r,4r)-4-(3-chloroanilino)-2′-(2,2-difluoro-3-methoxypropyl)-2′,3′-dihydrospiro[cyclohexane-1,1′-indene]-4-carboxylic acid] |
| 1.75 | O=C(O)[C@]1(Nc2cccc(Cl)c2)CC[C@]2(CC1)C(c1ccc(OCc3cccnc3)cc1)=Cc1ccccc12 [Example 350, (1s,4s)-4-(3-chloroanilino)-2′-{4-[(pyridin-3-yl)methoxy]phenyl}spiro[cyclohexane-1,1′-indene]-4-carboxylic acid] |

Further lines, the compound ahead of its results:

| SMILES | Ki [µM] |
| --- | --- |
| CN1c2ccc(I)cc2[C@]2(CC[C@](Nc3cccc(Br)c3)(C(=O)O)CC2)C1=O [Example 5, (1r,4r)-4-(3-bromoanilino)-5′-iodo-1′-methyl-2′-oxo-1′,2′-dihydrospiro[cyclohexane-1,3′-indole]-4-carboxylic acid] | 22 |
| COc1ccc(C2Cc3ccccc3[C@]23CC[C@@](Nc2ccccc2)(C(=O)O)CC3)c(C)c1 (single isomer, unassigned) [Example 256, (1r,4r)-4-anilino-2′-(4-methoxy-2-methylphenyl)-2′,3′-dihydrospiro[cyclohexane-1,1′-indene]-4-carboxylic acid] | 24.2 |
| Cc1cc(OCCCC2Cc3ccccc3C23CCC(Nc2cccc(Cl)c2)(C(=O)O)CC3)cc(C)c1Cl (stereo not drawn) [Example 436, (1r,4r)-4-(3-chloroanilino)-2′-[3-(4-chloro-3,5-dimethylphenoxy)propyl]-2′,3′-dihydrospiro[cyclohexane-1,1′-indene]-4-carboxylic acid] | 0.918 |
| O=C(O)[C@]1(Nc2cccc(Cl)c2)CC[C@@]2(CC1)c1ccccc1CC2c1cccc2c1OCC2 (single isomer, unassigned) [Example 296, (1r,4r)-4-(3-chloroanilino)-2′-(2,3-dihydro-1-benzofuran-7-yl)-2′,3′-dihydrospiro[cyclohexane-1,1′-indene]-4-carboxylic acid] | 3.46 |
| O=C(O)[C@]1(Nc2cccc(Cl)c2)CC[C@@]2(CC1)c1ccccc1CC2c1ccc(Cl)cc1 (single isomer, unassigned) [Example 320, (1r,4r)-4-(3-chloroanilino)-2′-(4-chlorophenyl)-2′,3′-dihydrospiro[cyclohexane-1,1′-indene]-4-carboxylic acid] | 6.86 |
| CN1c2ccc(-c3ccccc3)cc2[C@]2(CC[C@](Nc3cccc(Br)c3)(C(=O)O)CC2)C1=O [Example 10, (1r,4r)-4-(3-bromoanilino)-1′-methyl-2′-oxo-5′-phenyl-1′,2′-dihydrospiro[cyclohexane-1,3′-indole]-4-carboxylic acid] | 10.7 |
| COc1ccc(Cl)c(C2Cc3ccccc3[C@]23CC[C@@](Nc2cccc(Cl)c2)(C(=O)O)CC3)c1 (single isomer, unassigned) [Example 258, (1r,4r)-4-(3-chloroanilino)-2′-(2-chloro-5-methoxyphenyl)-2′,3′-dihydrospiro[cyclohexane-1,1′-indene]-4-carboxylic acid] | 2.37 |
| COc1ccc2c(c1)[C@]1(CC[C@](Nc3cccc(Br)c3)(C(=O)O)CC1)C1(CCCC1)C2 [Example 94, (1s,4s)-4-(3-bromoanilino)-6′-methoxy-3′H-dispiro[cyclohexane-1,1′-indene-2′,1″-cyclopentane]-4-carboxylic acid] | 129 |
| O=C(O)C1(Nc2cccc(Br)c2)CCC2(CC1)C(c1ccc(Cl)c(Cl)c1)=Cc1ccccc12 (single isomer, unassigned) [Example 233, 4-(3-bromoanilino)-2′-(3,4-dichlorophenyl)spiro[cyclohexane-1,1′-indene]-4-carboxylic acid] | 44 |
| CCC1=Cc2ccccc2[C@]12CC[C@](Nc1cccc(Br)c1)(C(=O)O)CC2 [Example 146, (1s,4s)-4-(3-bromoanilino)-2′-ethylspiro[cyclohexane-1,1′-indene]-4-carboxylic acid] | 6.92 |
| COc1ccc2c(c1)[C@]1(CC[C@](Nc3cccc(Br)c3)(C(=O)O)CC1)C(C)(C)C2 [Example 128, (1s,4s)-4-(3-bromoanilino)-6′-methoxy-2′,2′-dimethyl-2′,3′-dihydrospiro[cyclohexane-1,1′-indene]-4-carboxylic acid] | 46.2 |
| O=C(NCc1ccccc1)C1=Cc2ccccc2[C@]12CC[C@@](Nc1cccc(Cl)c1)(C(=O)O)CC2 [Example 180, (1s,4s)-2′-(benzylcarbamoyl)-4-(3-chloroanilino)spiro[cyclohexane-1,1′-indene]-4-carboxylic acid] | 12.8 |
| COc1cccc(C)c1C1=Cc2ccccc2[C@]12CC[C@@](Nc1cccc(Cl)c1)(C(=O)O)CC2 [Example 248, (1s,4s)-4-(3-chloroanilino)-2′-(2-methoxy-6-methylphenyl)spiro[cyclohexane-1,1′-indene]-4-carboxylic acid] | 28.2 |
| Cc1cc(C2=Cc3ccccc3[C@]23CC[C@@](Nc2cccc(Cl)c2)(C(=O)O)CC3)cs1 [Example 318, (1s,4s)-4-(3-chloroanilino)-2′-(5-methylthiophen-3-yl)spiro[cyclohexane-1,1′-indene]-4-carboxylic acid] | 1.91 |
| C=CCOC1Cc2ccccc2[C@]12CC[C@@](Nc1cccc(Cl)c1)(C(=O)O)CC2 (stereo partly drawn) [Example 122, (1s,4s)-4-(3-chloroanilino)-2′-[(prop-2-en-1-yl)oxy]-2′,3′-dihydrospiro[cyclohexane-1,1′-indene]-4-carboxylic acid] | 3.77 |
| CC1=Cc2ccccc2[C@]12CC[C@@](Nc1cccc(Cl)c1)(C(=O)O)CC2 [Example 143, (1r,4r)-4-(3-chloroanilino)-2′-methylspiro[cyclohexane-1,1′-indene]-4-carboxylic acid] | 0.182 |
| Cc1cccc(C2Cc3ccccc3C23CCC(Nc2cccc(Br)c2)(C(=O)O)CC3)c1 (stereo not drawn) [Example 215, 4-(3-bromoanilino)-2′-(3-methylphenyl)-2′,3′-dihydrospiro[cyclohexane-1,1′-indene]-4-carboxylic acid] | 0.846 |
| O=C(O)[C@]1(Nc2cccc(Cl)c2)CC[C@]2(CC1)C(c1ccoc1)=Cc1ccccc12 [Example 329, (1s,4s)-4-(3-chloroanilino)-2′-(furan-3-yl)spiro[cyclohexane-1,1′-indene]-4-carboxylic acid] | 1.65 |
| CC1=C(C)[C@]2(CC[C@](Nc3cccc(Br)c3)(C(=O)O)CC2)c2ccccc21 [Example 202, (1r,4r)-4-(3-bromoanilino)-2′,3′-dimethylspiro[cyclohexane-1,1′-indene]-4-carboxylic acid] | 0.3 |
| Cn1cc(C2Cc3ccccc3[C@]23CC[C@](Nc2cccc(Br)c2)(C(=O)O)CC3)cn1 (stereo partly drawn) [Example 213, (1s,4s)-4-(3-bromoanilino)-2′-(1-methyl-1H-pyrazol-4-yl)-2′,3′-dihydrospiro[cyclohexane-1,1′-indene]-4-carboxylic acid] | 87.3 |
